2 compounds from US9469556B2, “Ballast water treatment system” (University of Strathclyde, priority 2009, dated 2016) can be followed below.

The subject of this test is organisms in sea water. As to the kind of experiment: ATP luminescence assay of sea samples treated with biocide dyes. It counts as cell-based. Particulars: for biocidal properties in sea water (total ATP levels): Millport sea samples, different concentrations. As for the experimental part:
Required quantities of each biocide dye were added to the tubes containing the sea sample by means of sterile pipettes in order to give the desired concentrations.
50 mL of each seawater sample was centrifuged at 4,000 rpm for 30 minutes at room temperature. The supernatant was discarded, and the pellets (which may not be visible) were resuspended in 1 mL of ATP Buffer Mix by brisk mixing with a sterile pastette. 0.1 mL of detergent solution was added to each sample. Sample tubes were then placed in a water bath at 90° C. for exactly 5 minutes to lyse seawater organisms. Alternatively the seawater organisms (from 50 mL water) are captured on a 0.22 μm filter membrane and treated with the ATP Buffer Mix, as above.
As a negative control, sterilised seawater (filtered through 0.22 μm filter and/or autoclaved) was used. Where coloured agents were added to the samples, these were also added to the negative control at the same concentration.
One aliquot (0.1 mL) of ATP Assay Mix solution was thawed and added to a sterile transparent 5 mL luminometer tube. This was swirled and allowed to stand at room temperature to allow hydrolysis of endogenous ATP and decrease background.
Immediately after 5 minutes of being at 90° C., 0.1 mL of resuspended seawater sample was added to the reaction tube, swirled briskly for 5 seconds, and immediately measured using a tube luminometer using a 4 second read time.

For the compound `CN(C)c1ccc(C(=C2C=CC(=[N+](C)C)C=C2)c2ccc(N(C)C)cc2)cc1` [Gentian Violet], the “biocidal properties in sea water (total ATP levels)” value (with and without incubation (FIG. 3.2)) is “effective biocidal properties”. Also, the “viability of organisms in sea water (as measured by ATP presence)” value (dyes used separately (FIG. 4.1)) is listed as “incomplete reduction in viability”.

As to `O=C1OC2(c3ccccc31)c1cc(I)c(O)c(I)c1Oc1c2cc(I)c(O)c1I` [erythrosine], the “biocidal properties in sea water (total ATP levels)” value (overnight incubation, with and without light (60 w for 5 minutes) (FIG. 3.3)) was “effective biocidal properties”.
